# Data as given in ChEMBL document CHEMBL5634085, “Design, synthesis and antitrypanosomatid activity of 2-nitroimidazole-3,5-disubstituted isoxazole compounds based on benznidazole” (Eur J Med Chem, 2023).
# Columns and labels:
# [1] = Cytotoxicity against monkey LLC-MK2 cells incubated for 72 hrs by MTT assay; format: toxicity, cell-based, Macaca mulatta; conditions: rhesus monkey
# [2] = Selectivity index, ratio of CC50 for cytotoxicity against monkey LLC-MK2 cells to IC50 for antileishmanial activity against Leishmania amazonensis IFLA/BR/1967/PH8 amastigotes infected in mouse peritoneal macrophage; format: toxicity, cell-based; conditions: read-out: Ratio CC50/IC50
# [3] = tested on: Leishmania amazonensis; test: (§1) Antileishmanial activity against Leishmania amazonensis IFLA/BR/1967/PH8 amastigotes infected in mouse peritoneal macrophage assessed as inhibition of parasite growth pre-infected in cells for 4 hrs followed by compound addition and measured after 24 hrs by Giemsa staining based analysis; format: functional, organism-based; conditions: IFLA/BR/1967/PH8, Peritoneal macrophage
# [4] = tested on: Trypanosoma cruzi; test: Antitrypanosomal activity against Trypanosoma cruzi Tulahuen lacZ expressing beta-galactosidase amastigotes infected in monkey LLC-MK2 cells assessed as inhibition of amastigotes pre-infected in cells for 48 hrs followed by compound addition and measured after 72 hrs by CPRG reagent based absorbance analysis; format: functional, organism-based
# [5] = Selectivity index, ratio of CC50 for monkey LLC-MK2 cells to IC50 for Trypanosoma cruzi Tulahuen lacZ expressing beta-galactosidase amastigotes infected monkey LLC-MK2 cells; format: toxicity; conditions: read-out: Ratio CC50/IC50
# [6] = tested on: Leishmania amazonensis; test: as §1, with “Potency index, ratio of pentamidine IC50 to test compound IC50 for antileishmanial” for “Antileishmanial”; format: functional, Peritoneal macrophage cell
# [7] = tested on: Trypanosoma cruzi; test: Binding affinity to Trypanosoma cruzi type I nitro reductase at 10 uM incubated for 5 mins in the presence of NADH by microplate reader analysis
# [8] = tested on: Trypanosoma cruzi; test: Binding affinity to Trypanosoma cruzi type I nitro reductase at 25 uM incubated for 5 mins in the presence of NADH by microplate reader analysis
Compound,CC50 at 72 h [1] [µM],selectivity ratio [2],IC50 [3] [µM],IC50 [4] [µM],selectivity ratio [5],Ratio IC50 [6],Kobs [7] [s⁻¹],Kobs [8] [s⁻¹]
C[C@@H]1[C@H](O)[C@@H](C)/C=C/C=C/C=C/C=C/C=C/C=C/C=C/[C@H](O[C@@H]2O[C@H](C)[C@@H](O)[C@H](N)[C@@H]2O)C[C@@H]2O[C@](O)(C[C@@H](O)C[C@@H](O)[C@H](O)CC[C@@H](O)C[C@@H](O)CC(=O)O[C@H]1C)C[C@H](O)[C@H]2C(=O)O [AMPHOTERICIN B],22.8,9.87,2.3,,,,,
O=[N+]([O-])c1nccn1Cc1cc(-c2ccc(N3CCOCC3)cc2)no1,> 50,> 0.9,54.1,2.8,> 18,,,
O=[N+]([O-])c1nccn1Cc1cc(-c2ccc3c(c2)OCO3)no1,> 50,> 6,8.3,3.6,> 13.8,2,,
O=[N+]([O-])c1nccn1Cc1cc(-c2ccc(N3CCCCC3)cc2)no1,> 50,> 1.6,31.1,7.5,> 6.7,,,
N#Cc1ccc(-c2cc(Cn3ccnc3[N+](=O)[O-])on2)cc1,> 50,> 1.4,34.6,> 100,> 0.6,,,
O=[N+]([O-])c1nccn1Cc1cc(-c2ccc(OC(F)(F)F)cc2)no1,> 50,> 1.4,35.6,15.2,> 3.3,,,
CN(C)c1ccc(-c2cc(Cn3ccnc3[N+](=O)[O-])on2)cc1,> 50,> 1.5,33.4,2.3,> 21.2,,0.24,0.31
O=[N+]([O-])c1ccc(-c2cc(Cn3ccnc3[N+](=O)[O-])on2)cc1,46.1,1.4,32.4,18.3,2.5,,,
O=[N+]([O-])c1nccn1Cc1cc(-c2ccc(N3CCN(CCO)CC3)cc2)no1,> 50,> 8.8,5.6,7.5,> 6.7,2.9,,
O=[N+]([O-])c1nccn1Cc1cc(-c2ccc(Cl)cc2)no1,48,1.8,26.6,1.5,32.5,,,
COc1ccc(-n2cc(-c3cc(OC)c(OC)c(OC)c3)nn2)cc1OC,,,29.2,,,,,
O=[N+]([O-])c1nccn1Cc1cc(-c2ccc(F)c(F)c2)no1,> 50,> 2.8,17.7,6.5,> 7.6,,,
N#Cc1cccc(-c2cc(Cn3ccnc3[N+](=O)[O-])on2)c1,> 50,> 1.4,36.6,40.4,> 1.2,,,
O=[N+]([O-])c1nccn1Cc1cc(-c2ccc(C(F)(F)F)cc2)no1,18.9,1,18,23,0.8,,,
O=[N+]([O-])c1nccn1Cc1cc(-c2ccc(N3CCN(c4ccccc4)CC3)cc2)no1,> 50,> 0.5,> 100,> 100,> 1,,,
COc1cc(OC)c(Cl)c(-c2cc(Cn3ccnc3[N+](=O)[O-])on2)c1,> 50,> 22.6,2.2,12,> 4.2,7.6,,
Cc1ccc(-c2cc(Cn3ccnc3[N+](=O)[O-])on2)cc1,> 50,> 1.9,26.7,9.3,> 5.4,,,
COc1ccccc1-c1cc(Cn2ccnc2[N+](=O)[O-])on1,> 50,> 3.9,12.7,4.6,> 10.9,,,
COc1cc(-c2cc(-c3cc(OC)c(OC)c(OC)c3)on2)cc(OC)c1OC,,,2.9,,,,,
COc1cc(-c2cc(-c3ccc4c(c3)OCO4)no2)cc(OC)c1OC,,,1.4,,,,,
O=[N+]([O-])c1nccn1Cc1cc(-c2ccc(N3CCCC3)cc2)no1,> 50,> 5,9.9,2.3,> 21.7,,,
COc1ccc(-c2cn(-c3cc(OC)c(OC)c(OC)c3)nn2)cc1OC,,,5.6,,,,,
O=[N+]([O-])c1nccn1Cc1cc(-c2ccc(N3CCCCCC3)cc2)no1,> 50,> 1.9,25.1,3.9,> 12.8,,,
O=[N+]([O-])c1nccn1Cc1cc(-c2ccc(Br)cc2)no1,43,> 2.5,17.4,5.1,8.4,,,

Compound,CC50 at 72 h [1] [µM],selectivity ratio [2],IC50 [3] [µM],IC50 [4] [µM],selectivity ratio [5],Ratio IC50 [6],Kobs [7] [s⁻¹],Kobs [8] [s⁻¹]
COc1ccc(-c2cc(-c3cc(OC)c(OC)c(OC)c3)on2)cc1OC,,,0.4,,,,,
O=[N+]([O-])c1nccn1Cc1cc(-c2ccc(N3CCNCC3)cc2)no1,> 50,> 19.8,2.5,4.7,> 10.5,6.6,,
COc1ccc(-c2cc(Cn3ccnc3[N+](=O)[O-])on2)cc1,> 50,> 2.9,17.3,1.9,> 25.6,,,
O=[N+]([O-])c1nccn1Cc1cc(-c2cccc(Cl)c2)no1,> 50,> 4.9,10.2,9.3,> 5.3,,,
O=[N+]([O-])c1nccn1Cc1cc(-c2cccnc2)no1,> 50,> 0.7,73.8,7.8,> 6.4,,,
COc1ccc(-c2cc(Cn3ccnc3[N+](=O)[O-])on2)cc1O,> 50,> 2.9,17.1,3,> 16.6,,,
O=[N+]([O-])c1nccn1Cc1cc(-c2ccccn2)no1,> 50,> 1.3,37.8,7.5,> 6.7,,,
Nc1ccc(-c2cc(Cn3ccnc3[N+](=O)[O-])on2)cc1,> 50,> 2.3,21.7,6.2,> 8.1,,,
COc1cc(-c2cc(Cn3ccnc3[N+](=O)[O-])on2)cc(OC)c1OC,> 50,> 3.4,14.6,1.9,> 25.9,,,
CSc1ccc(-c2cc(Cn3ccnc3[N+](=O)[O-])on2)cc1,> 50,> 2.2,22.4,31.4,> 1.6,,,
COc1cccc(-c2cc(Cn3ccnc3[N+](=O)[O-])on2)c1,> 50,> 4,12.5,11.2,> 4.4,,,
O=[N+]([O-])c1nccn1Cc1cc(-c2ccc(F)cc2)no1,> 50,> 2.1,24.2,3.3,> 15.3,,,
COc1cc(-n2cc(-c3ccc4c(c3)OCO4)nn2)cc(OC)c1OC,,,4.4,,,,,
N=C(N)c1ccc(OCCCCCOc2ccc(C(=N)N)cc2)cc1 [PENTAMIDINE],,,16.8,,,,,
O=[N+]([O-])c1nccn1Cc1cc(-c2ccc(Cl)c(Cl)c2)no1,> 50,> 2.6,18.9,2.2,> 22.2,,,
COc1ccc(-c2cc(-c3cc(OC)c(OC)c(OC)c3)no2)cc1OC,,,0.7,,,,,
COc1ccc(-c2cc(Cn3ccnc3[N+](=O)[O-])on2)cc1[N+](=O)[O-],> 50,> 3.3,15.2,24.2,> 2.1,,0.54,0.57
O=[N+]([O-])c1nccn1Cc1cc(-c2ccncc2)no1,> 50,> 3,16.3,3.1,> 16.3,,,
O=[N+]([O-])c1nccn1Cc1cc(-c2ccccc2)no1,> 50,> 1.5,33.1,4,> 12.3,,,
COc1cc(-c2cn(-c3cc(OC)c(OC)c(OC)c3)nn2)cc(OC)c1OC,,,9.4,,,,,
COc1ccc(-c2cc(Cn3ccnc3[N+](=O)[O-])on2)cc1Cl,> 50,> 1.6,31.3,1,> 49,,,
O=[N+]([O-])c1cccc(-c2cc(Cn3ccnc3[N+](=O)[O-])on2)c1,> 50,> 1.4,35.1,5.3,> 9.4,,,
COc1cc(OC)cc(-c2cc(Cn3ccnc3[N+](=O)[O-])on2)c1,> 50,> 4.9,10.1,6,> 8.3,,,
O=[N+]([O-])c1nccn1Cc1cc(-c2ccc(Cl)cc2Cl)no1,43.2,1.3,33.7,3.7,> 11.4,,,
